{
  "source": "paper PMC8836234",
  "about": "“Salicylic Acid Is Required for Broad-Spectrum Disease Resistance in Rice” (International Journal of Molecular Sciences, 2022)",
  "molecules": {"B1": {"name": "OsSAH3 (Oryza sativa Japonica Group) (protein)", "chain": "MAPAIAKPLLSDLVAQSGQVPSSHIRPVGDRPDLDNVDHESGAGIPVIDLKQLDGPDRRKVVEAIGSACETDGFFMVKNHGIPEEVVEGMLRVAREFFHMPESERLKCYSDDPKKAIRLSTSFNVRTEKVSNWRDFLRLHCYPLESFIDQWPSNPPSFRQVVGTYSREARALALRLLEAISESLGLERGHMVSAMGRQAQHMAVNYYPPCPQPELTYGLPGHKDPNAITLLLQDGVSGLQVQRNGRWVAVNPVPDALVINIGDQIQALSNDRYKSVLHRVIVNSESERISVPTFYCPSPDAVIAPAGALVDGALHPLAYRPFKYQAYYDEFWNMGLQSASCLDRFRPNDQAV", "notes": "recombinant from E. coli BL21 (DE3), modified pGEX vector (GST purification), 3 x Myc at C-terminus; wild type has F136, R138, I289, P292; gene on chromosome 4, tail-to-tail with OsSAH2"}},
  "key": {"OsSAH3": {"target": "T1, OsSAH3 (Oryza sativa, UniProt Q7XUN0)", "T1 construct": "gene Os04g0581100; recombinant from E. coli BL21 (DE3), modified pGEX vector (GST purification), 3 x Myc at C-terminus; wild type has F136, R138, I289, P292; gene on chromosome 4, tail-to-tail with OsSAH2", "T1 sequence (Q7XUN0 1-352)": "B1 chain", "assay": "LC-MS/MS of […],5-DHBA formation, substrate inhibition fit", "type": "biochemical", "details": "substrate inhibition constant, second site; 5-hydroxylation (2,5-DHBA product); 1 mM 2-oxoglutarate, 0.4 mM FeSO4, phosphate pH 6.8, 40 °C"}, "OsSAH4": {"target": "T2, OsSAH4 (Oryza sativa, UniProt Q8W2X5)", "T2 construct": "gene F3H-2; recombinant from E. coli BL21 (DE3), modified pGEX vector (GST purification), 3 x Myc at C-terminus", "T2 sequence (Q8W2X5 1-342)": "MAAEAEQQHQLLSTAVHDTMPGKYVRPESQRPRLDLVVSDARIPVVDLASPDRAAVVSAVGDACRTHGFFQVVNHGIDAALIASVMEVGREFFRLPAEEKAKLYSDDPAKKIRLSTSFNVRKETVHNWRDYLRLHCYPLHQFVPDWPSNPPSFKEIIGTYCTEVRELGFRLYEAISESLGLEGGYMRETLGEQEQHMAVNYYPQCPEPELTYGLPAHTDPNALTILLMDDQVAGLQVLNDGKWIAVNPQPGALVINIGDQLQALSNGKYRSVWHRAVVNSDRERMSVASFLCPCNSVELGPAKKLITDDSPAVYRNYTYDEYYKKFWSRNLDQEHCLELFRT", "assay": "LC-MS/MS of […],5-DHBA formation, substrate inhibition fit", "type": "biochemical", "details": "substrate inhibition constant, second site; 5-hydroxylation (2,5-DHBA product); 1 mM 2-oxoglutarate, 0.4 mM FeSO4, phosphate pH 6.8, 40 °C"}, "DMR6": {"target": "T3, DMR6 (Arabidopsis thaliana, UniProt Q9FLV0)", "T3 construct": "recombinant from E. coli BL21 (DE3), modified pGEX vector (GST purification), 3 x Myc at C-terminus; wild type has Y126, A283", "T3 sequence (Q9FLV0 1-341)": "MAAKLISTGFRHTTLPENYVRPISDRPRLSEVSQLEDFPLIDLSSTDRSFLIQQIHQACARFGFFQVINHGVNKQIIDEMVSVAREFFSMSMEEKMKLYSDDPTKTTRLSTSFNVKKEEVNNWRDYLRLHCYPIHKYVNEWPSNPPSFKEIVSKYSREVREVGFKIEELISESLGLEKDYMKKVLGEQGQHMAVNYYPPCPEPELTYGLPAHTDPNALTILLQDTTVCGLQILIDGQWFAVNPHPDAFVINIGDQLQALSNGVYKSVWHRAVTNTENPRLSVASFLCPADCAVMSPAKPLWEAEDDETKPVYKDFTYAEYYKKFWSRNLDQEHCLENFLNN", "assay": "LC-MS/MS product formation relative to wild type", "type": "biochemical", "details": "2-oxoglutarate, FeSO4, phosphate pH 6.8, 40 °C; 2,3- and 2,5-DHBA products"}, "OsSAH2 [1]": {"target": "T4, OsSAH2 (Oryza sativa, UniProt B9FC47, Y127F)", "T4 construct": "gene Os04g0581000; recombinant from E. coli BL21 (DE3), modified pGEX vector (GST purification), 3 x Myc at C-terminus; wild type has Y127, M282, A285; gene on chromosome 4, tail-to-tail with OsSAH3", "T4 sequence (B9FC47 1-340 Y127F)": "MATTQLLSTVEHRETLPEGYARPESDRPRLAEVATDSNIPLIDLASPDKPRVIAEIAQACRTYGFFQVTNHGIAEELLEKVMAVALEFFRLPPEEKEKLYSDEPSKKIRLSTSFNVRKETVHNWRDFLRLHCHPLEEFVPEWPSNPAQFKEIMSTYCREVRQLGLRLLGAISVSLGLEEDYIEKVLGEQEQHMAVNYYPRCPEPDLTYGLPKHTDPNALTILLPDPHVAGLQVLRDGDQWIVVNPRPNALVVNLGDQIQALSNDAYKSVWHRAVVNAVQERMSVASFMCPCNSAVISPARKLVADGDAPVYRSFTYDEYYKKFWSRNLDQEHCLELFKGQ", "assay": "LC-MS/MS product formation relative to wild type", "type": "biochemical", "details": "2-oxoglutarate, FeSO4, phosphate pH 6.8, 40 °C; 2,3- and 2,5-DHBA products"}, "OsSAH2 [2]": {"target": "T5, OsSAH2 (Oryza sativa, UniProt B9FC47)", "T5 construct": "gene Os04g0581000; recombinant from E. coli BL21 (DE3), modified pGEX vector (GST purification), 3 x Myc at C-terminus; wild type has Y127, M282, A285; gene on chromosome 4, tail-to-tail with OsSAH3", "T5 sequence (B9FC47 1-340)": "T4 sequence (B9FC47 1-340 Y127F) with F127Y", "assay": "LC-MS/MS of […],5-DHBA formation, substrate inhibition fit", "type": "biochemical", "details": "substrate inhibition constant, second site; 5-hydroxylation (2,5-DHBA product); 1 mM 2-oxoglutarate, 0.4 mM FeSO4, phosphate pH 6.8, 40 °C"}, "OsSAH1": {"target": "T6, OsSAH1 (Oryza sativa, UniProt Q10SI2)", "T6 construct": "gene Os03g0122300; recombinant from E. coli BL21 (DE3), modified pGEX vector (GST purification), 3 x Myc at C-terminus", "T6 sequence (Q10SI2 1-342)": "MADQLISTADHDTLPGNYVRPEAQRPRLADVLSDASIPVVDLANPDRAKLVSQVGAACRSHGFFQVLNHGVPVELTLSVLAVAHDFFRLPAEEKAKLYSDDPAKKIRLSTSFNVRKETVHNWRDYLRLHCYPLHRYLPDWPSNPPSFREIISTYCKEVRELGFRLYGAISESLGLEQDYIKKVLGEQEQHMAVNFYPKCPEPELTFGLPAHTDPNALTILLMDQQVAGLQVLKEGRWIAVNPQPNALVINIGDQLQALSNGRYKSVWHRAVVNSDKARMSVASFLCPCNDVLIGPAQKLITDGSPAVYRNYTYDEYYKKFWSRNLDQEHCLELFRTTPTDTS", "assay": "LC-MS/MS of […],5-DHBA formation, substrate inhibition fit", "type": "biochemical", "details": "substrate inhibition constant, second site; 5-hydroxylation (2,5-DHBA product); 1 mM 2-oxoglutarate, 0.4 mM FeSO4, phosphate pH 6.8, 40 °C"}, "purified protein": {"substrate": "O=C(O)c1ccccc1O", "assay": "purified protein", "type": "biochemical, Oryza sativa", "details": "5-hydroxylation (2,5-DHBA product), 1 mM 2-oxoglutarate, 0.4 mM FeSO4, ascorbate, phosphate pH 6.8, 40 °C"}},
  "note": "Numbering of substitutions follows the chain as printed.",
  "data": [
    {"molecule": "O=C(O)c1ccccc1O", "note": "[SA, 2-hydroxy benzoic acid]", "values": [
      {"measurement": "Ksi", "setting": "OsSAH3", "result": "365.12 ± 30.58", "unit": "µM"},
      {"measurement": "Ksi", "setting": "OsSAH4", "result": "26.52 ± 10.71", "unit": "µM"},
      {"measurement": "LC-MS/MS product formation relative to wild type", "setting": "DMR6", "result": "The higher activity of DMR6 than that of OsSAH2 was also supported by these parameters"},
      {"measurement": "relative enzyme activity", "setting": "OsSAH2 [1]", "result": "OsSAH2^Y127F mutant showed a similar level of SA5H activity as that of OsSAH2"},
      {"measurement": "Ksi", "setting": "OsSAH2 [2]", "result": "2.14 ± 1.86", "unit": "µM"},
      {"measurement": "Ksi", "setting": "OsSAH1", "result": "27.13 ± 21.11", "unit": "µM"}
    ]},
    {"molecule": "B1", "values": [
      {"measurement": "Km", "setting": "purified protein", "result": "197.08 ± 19.42", "unit": "µM"},
      {"measurement": "kcat", "setting": "purified protein", "result": "0.256 ± 0.0332", "unit": "s⁻¹"},
      {"measurement": "kcat/Km", "setting": "purified protein", "result": 1290, "unit": "M⁻¹ s⁻¹"}
    ]}
  ]
}
